Reference: patent publication US9029405B2, “5-(biphenyl-4-yl)-3-phenyl-1,2,4-oxadiazolyl derivatives as ligands on the sphingosine 1-phosphate(SIP)receptors” (Merck Serono S.A., priority 2010, dated 2015)
Counter-ions that a name gives are not always drawn. Like-named read-outs stand apart in the source and are kept apart here.

Legend:
[1] = target: T1, S1P1 (Homo sapiens, UniProt P21453); test: Receptor binding assay, [33P]sphingosine 1-phosphate competition, membranes of CHO cells expressing S1P1
Summary of the method: (§1)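 SPA competition on CHO membranes with [33P]S1P at 30 pM (S1P1) or 15 pM (S1P3), in 50 mM HEPES pH 7.5, 5 mM MgCl2, 100 mM NaCl, 0.4% fatty acid-free BSA, 60 min at RT. Non-specific binding defined by 1000-fold unlabeled S1P; Ki values reported.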
Target sequence in this assay (P21453 whole entry, species assumed): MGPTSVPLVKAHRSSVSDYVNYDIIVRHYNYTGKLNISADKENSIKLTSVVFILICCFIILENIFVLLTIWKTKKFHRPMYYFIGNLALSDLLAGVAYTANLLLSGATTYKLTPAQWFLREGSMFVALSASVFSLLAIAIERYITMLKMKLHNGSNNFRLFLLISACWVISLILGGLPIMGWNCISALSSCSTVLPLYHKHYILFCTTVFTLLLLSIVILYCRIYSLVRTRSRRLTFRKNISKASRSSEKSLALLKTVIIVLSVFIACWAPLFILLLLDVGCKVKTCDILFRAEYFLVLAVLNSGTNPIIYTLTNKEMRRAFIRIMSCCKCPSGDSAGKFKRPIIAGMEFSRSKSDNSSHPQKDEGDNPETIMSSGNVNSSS

[2] = target: S1P3 (Homo sapiens, UniProt Q99500); test: Receptor binding assay, [33P]sphingosine 1-phosphate competition, membranes of CHO cells expressing S1P3
Summary of the method: as §1

[3] = test system: lymphocytes; test: Model of S1P agonists-induced lymphopenia in mice; type: in vivo; conditions: oral route, 30 mpk
Method: (§2) Female C57BL/6 mice (Elevage Janvier) (8 week old) receive S1P agonists by oral route. Blood is sampled in heparinized (100 IU/kg, ip) mice by intracardiac or retroorbital puncture under isoflurane anesthesia 2 to 120 hrs after drug treatment. The white blood cells (lymphocytes and neutrophils) are counted using a Beckman/Coulter counter. The quality of blood sampling is assessed by counting erythocytes and platelets.

[4] = Pharmacokinetics from lymphopenia study (mouse); type: in vivo; conditions: PK-PD (30 mpk)
Method: as §2
The pharmacokinetic properties of compound of example 31, 2-({2-Fluoro-4-[5-(2′-methyl-2-trifluoromethyl-biphenyl-4-yl)-[1,2,4]oxadiazol-3-yl]-benzyl}-methyl-amino)-2-methyl-propionic acid, are the following: […]

[5] = target: T1, S1P1; test: S1P1 internalization assay in S1P1-U2OS cells (cell imaging); type: cell-based; parameters: host or cells: U2OS (human bone osteosarcoma epithelial cells); conditions: U2OS cells expressing S1P1-EGFP, 384-well format
Summary of the method: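 U2OS cells stably expressing human S1P1-EGFP, serum-starved 2 h in medium with 0.1% fatty-acid-free BSA, then compound 1 h at 37° C. After fixation and Hoechst nuclear stain, receptor internalization imaged as EGFP spot count per nucleus.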
Target sequence in this assay (P21453 whole entry): as the sequence (P21453 whole entry, species assumed) above

[6] = 384 well plate, read-out: S1P1 Binding Ki [M] (384 well plate)
[7] = 384 well plate, read-out: S1P3 Binding Ki [M] (384 well plate)
[8] = female, C57BL/6, plasma, 30 mg/kg, oral route
[9] = 96 well plate, read-out: S1P1 Binding Ki [M] (96 well plate)
[10] = 96 well plate, read-out: S1P3 Binding Ki [M] (96 well plate)

S1P3, sequence (Q99500 whole entry, species assumed): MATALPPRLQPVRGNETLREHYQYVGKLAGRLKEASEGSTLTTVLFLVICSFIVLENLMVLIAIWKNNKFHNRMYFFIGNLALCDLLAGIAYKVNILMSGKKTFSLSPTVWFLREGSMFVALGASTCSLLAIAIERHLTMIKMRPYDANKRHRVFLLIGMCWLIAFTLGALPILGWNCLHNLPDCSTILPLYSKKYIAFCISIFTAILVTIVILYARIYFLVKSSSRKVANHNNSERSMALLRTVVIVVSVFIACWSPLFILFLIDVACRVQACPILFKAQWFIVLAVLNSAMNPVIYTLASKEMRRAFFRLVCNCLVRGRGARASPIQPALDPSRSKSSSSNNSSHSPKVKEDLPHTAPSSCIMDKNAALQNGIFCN

| Structure (SMILES) | Ki [1, 6] [M] | Ki [2, 7] [M] | EC50 [5] [nM] | melting point [°C] | further results |
| --- | --- | --- | --- | --- | --- |
| Cc1ccccc1-c1ccc(-c2nc(-c3ccc(CN(C)C(C)(C)C(=O)O)c(F)c3)no2)cc1C(F)(F)F [Example 31, 2-({2-Fluoro-4-[5-(2′-methyl-2-trifluoromethyl-biphenyl-4-yl)-[1,2,4]oxadiazol-3-yl]-benzyl}-methyl-amino)-2-methyl-propionic acid] | 5.32e-09 | 2.54e-06 | 36.6 | – | % of lymphopenia in mouse at 48 h [3]: % of lymphopenia in mouse at 48 h 67 +/− 6; Lymphe node/plasma ratio: 24 h ([4]; 24 h): 2.5; Lymphe node/plasma ratio: 48 h ([4]; 48 h): 2.7; CI/F ([4]; oral route): 6.7 mL/min/kg; Kp ([4]; female, C57BL/6, brain/plasma, oral, 30 mg/kg, ratio of AUCz, read-out: Brain/plasma ratio: AUCZ (h*ng/ml)): 3.5; AUC(0-inf) [4, 8]: 75000 ng·h/mL; Cmax [4, 8]: 7420 ng/mL; Tmax [4, 8]: 2 h; half-life ([4]; female, C57BL/6, plasma, 30 mg/kg, oral route, read-out: T½ (converted)): 6.3 h |
| Cc1cc(-c2nc(-c3ccc([C@H](C)N(C)CC(=O)O)cc3)no2)ccc1-c1ccccc1C(F)(F)F (as salt: hydrochloride) [Example 33, N-methyl-N-[(1S)-1-(4-{5-[2-methyl-2′-(trifluoromethyl)biphenyl-4-yl]-1,2,4-oxadiazol-3-yl}phenyl)ethyl]glycine, hydrochloride salt] | – | – | – | 217 | – |
| Cc1ccccc1-c1ccc(-c2nc(-c3ccc([C@H](C)N(C)CC(=O)O)cc3)no2)cc1C(F)(F)F (as salt: hydrochloride) [Example 34, N-methyl-N-[(1S)-1-(4-{5-[2′-methyl-2-(trifluoromethyl)biphenyl-4-yl]-1,2,4-oxadiazol-3-yl}phenyl)ethyl]glycine, hydrochloride salt] | – | – | – | 221 | – |
| Cc1cc(-c2nc(-c3cccc(C(C)NCC(=O)O)c3)no2)ccc1-c1ccccc1C(F)(F)F (stereo not drawn) (as salt: hydrochloride) [Example 38, N-[1-(3-{5-[2-methyl-2′-(trifluoromethyl)biphenyl-4-yl]-1,2,4-oxadiazol-3-yl}phenyl)ethyl]glycine, hydrochloride salt] | – | – | – | 176 | – |
| Cc1ccccc1-c1ccc(-c2nc(-c3ccc([C@@H](C)N(C)CC(=O)O)cc3)no2)cc1C(F)(F)F (as salt: hydrochloride) [Example 36, N-methyl-N-[(1R)-1-(4-{5-[2′-methyl-2-(trifluoromethyl)biphenyl-4-yl]-1,2,4-oxadiazol-3-yl}phenyl)ethyl]glycine, hydrochloride salt] | – | – | – | 221 | – |
| Cc1cc(-c2nc(-c3ccc([C@@H](C)N(C)CC(=O)O)cc3)no2)ccc1-c1ccccc1C(F)(F)F (as salt: hydrochloride) [Example 35, N-methyl-N-[(1R)-1-(4-{5-[2-methyl-2′-(trifluoromethyl)biphenyl-4-yl]-1,2,4-oxadiazol-3-yl}phenyl)ethyl]glycine, hydrochloride salt] | – | – | – | 217 | – |
| Cc1ccccc1-c1ccc(-c2nc(-c3ccc([C@@H](C)N[C@H](C)C(=O)O)cc3)no2)cc1C(F)(F)F [Example 20, N-[(1R)-1-(4-{5-[2′-methyl-2-(trifluoromethyl)biphenyl-4-yl]-1,2,4-oxadiazol-3-yl}phenyl)ethyl]-D-alanine, hydrochloride salt] | 1.63e-09 | 2.27e-06 | 7.57 | – | Ki [1, 9]: 8.67e-10 M; Ki [2, 10]: 6.83e-06 M |
| COCc1cc(-c2nc(-c3ccc([C@H](C)N[C@H](C)C(=O)O)cc3)no2)ccc1-c1ccccc1C [Example 3, N-[(1S)-1-(4-{5-[2-(methoxymethyl)-2′-methylbiphenyl-4-yl]-1,2,4-oxadiazol-3-yl}phenyl)ethyl]-D-alanine, hydrochloride salt] | 2e-09 | 2.59e-06 | 8.19 | – | Ki [1, 9]: 3.4e-10 M |
| CCC(C(=O)O)N(C)Cc1ccc(-c2noc(-c3ccc(-c4ccccc4C)c(C(F)(F)F)c3)n2)cc1F (stereo not drawn) [Example 1, 2-[(2-fluoro-4-{5-[2′-methyl-2-(trifluoromethyl)biphenyl-4-yl]-1,2,4-oxadiazol-3-yl}benzyl)(methyl)amino]butanoic acid, hydrochloride salt] | 2.81e-09 | 1.77e-06 | 43.3 | – | – |
| COCc1cc(-c2nc(-c3ccc([C@H](C)NCC(=O)O)cc3)no2)ccc1-c1ccccc1C [Example 5, N-[(1S)-1-(4-{5-[2-(methoxymethyl)-2′-methylbiphenyl-4-yl]-1,2,4-oxadiazol-3-yl}phenyl)ethyl]glycine, hydrochloride salt] | 1.27e-09 | 1.23e-06 | 4.33 | – | – |
| Cc1ccccc1-c1ccc(-c2nc(-c3ccc([C@H](C)N[C@H](C)C(=O)O)cc3)no2)cc1C(F)(F)F (racemic) [Example 27, N-[(1S)-1-(4-{5-[2′-methyl-2-(trifluoromethyl)biphenyl-4-yl]-1,2,4-oxadiazol-3-yl}phenyl)ethyl]-D-alanine, hydrochloride salt and N-[(1R)-1-(4-{5-[2′-methyl-2-(trifluoromethyl)biphenyl-4-yl]-1,2,4-oxadiazol-3-yl}phenyl)ethyl]-L-alanine, hydrochloride salt] | 2.21e-09 | 1.33e-06 | 7.84 | – | – |
| Cc1ccccc1-c1ccc(-c2nc(-c3cccc(C(C)N(C)[C@@H](C)C(=O)O)c3)no2)cc1C(F)(F)F (stereo partly drawn) [Example 29, N-methyl-N-[1-(3-{5-[2′-methyl-2-(trifluoromethyl)biphenyl-4-yl]-1,2,4-oxadiazol-3-yl}phenyl)ethyl]alanine, hydrochloride salt] | 5.95e-10 | 5.84e-08 | 46 | – | – |

Continued, in another order:

| Ki [1, 6] [M] | Ki [2, 7] [M] | EC50 [5] [nM] | melting point [°C] | Structure (SMILES) | further results |
| --- | --- | --- | --- | --- | --- |
| – | – | – | 204 | Cc1ccccc1-c1ccc(-c2nc(-c3ccc(C(C)N(C)CC(=O)O)cc3)no2)cc1C(F)(F)F (stereo not drawn) (as salt: hydrochloride) [Example 40, N-methyl-N-[1-(4-{5-[2′-methyl-2-(trifluoromethyl)biphenyl-4-yl]-1,2,4-oxadiazol-3-yl}phenyl)ethyl]glycine, hydrochloride salt] | – |
| – | – | – | 214 | CCC(NCc1ccc(-c2noc(-c3ccc(-c4ccccc4C)c(C(F)(F)F)c3)n2)cc1F)C(=O)O (stereo not drawn) (as salt: hydrochloride) [Example 41, 2-[(2-fluoro-4-{5-[2′-methyl-2-(trifluoromethyl)biphenyl-4-yl]-1,2,4-oxadiazol-3-yl}benzyl)amino]butanoic acid, hydrochloride salt] | – |
| 3.46e-09 | 1.03e-06 | 24.2 | – | Cc1ccccc1-c1ccc(-c2nc(-c3ccc(CN[C@@H](CCO)C(=O)O)cc3)no2)cc1C(F)(F)F [Example 60] | – |
| 3.45e-09 | 4.49e-06 | 28.5 | – | Cc1ccccc1-c1ccc(-c2nc(-c3ccc(CN[C@@H](C)C(=O)O)cc3)no2)cc1C(F)(F)F [Example 67] | – |
| 1.72e-09 | 1.72e-07 | 49.5 | – | Cc1ccccc1-c1ccc(-c2nc(-c3cccc(CN(C)[C@@H](C)C(=O)O)c3)no2)cc1C(F)(F)F [Example 81] | – |
| 5.2e-09 | 4.07e-06 | 49.1 | – | CC[C@@H](C(=O)O)N(C)Cc1ccc(-c2noc(-c3ccc(-c4ccccc4C)c(C(F)(F)F)c3)n2)cc1 [Example 69, (2S)-2-(methyl(4-(5-(2′-methyl-2-(trifluoromethyl)biphenyl-4-yl)-1,2,4-oxadiazol-3-yl)benzyl)amino)butanoic acid] | – |
| – | – | – | 177 | Cc1ccccc1-c1ccc(-c2nc(-c3cccc(C(C)NCC(=O)O)c3)no2)cc1C(F)(F)F (stereo not drawn) (as salt: hydrochloride) [Example 42, N-[1-(3-{5-[2′-methyl-2-(trifluoromethyl)biphenyl-4-yl]-1,2,4-oxadiazol-3-yl}phenyl)ethyl]glycine, hydrochloride salt] | – |
| 8.12e-09 | 7.36e-06 | 34.5 | – | Cc1ccccc1-c1ccc(-c2nc(-c3ccc(CCN[C@H](C(=O)O)C(C)C)cc3)no2)cc1C(F)(F)F [Example 91, (2S)-3-methyl-2-(4-(5-(2′-methyl-2-(trifluoromethyl)biphenyl-4-yl)-1,2,4-oxadiazol-3-yl)phenethylamino)butanoic acid] | – |
| 2e-09 | 7.7e-07 | 5.66 | – | Cc1ccccc1-c1ccc(-c2nc(-c3ccc(CN(C)[C@H](C)C(=O)O)cc3)no2)cc1C(F)(F)F [Example 71] | Ki [2, 10]: 7.01e-07 M |
| 2.17e-09 | 5.32e-07 | 17.8 | – | Cc1ccccc1-c1ccc(-c2nc(-c3ccc(C(C)N(C)CC(=O)O)cc3)no2)cc1C(F)(F)F (stereo not drawn) [Example 40, N-methyl-N-[1-(4-{5-[2′-methyl-2-(trifluoromethyl)biphenyl-4-yl]-1,2,4-oxadiazol-3-yl}phenyl)ethyl]glycine, hydrochloride salt] | – |
